According to patent publication US20180141913A1 (EISAI R & D MANAGEMENT CO., LTD., priority 2016, published 2018):

Legend:
[1] = tested on: MCF7-Y537S cells (MCF7 ER-alpha Y537S mutant); experiment: In vitro proliferation (viability) assay, MCF7-Y537S cells; type: cell-based; settings: Homo sapiens, MCF7; CellTiter-Glo, day 6 vs day 0; average ± standard deviation; free base and/or salt forms; read-out: MCF7 Y537S GI50
Description: (§1) MCF7 BUS cells (Coser, et al., (2003) PNAS 100(24): 13994-13999) were maintained in Dulbecco's Modified Eagle Medium supplemented with 10% FBS, 4 mM L-glutamine and 1× non-essential amino acids. Lenti-X 293T cells (Clontech, Cat #632180) were routinely cultured in Dulbecco's Modified Eagle Medium supplemented with 10% FBS.
(§2) The QuikChange II XL Site-Directed Mutagenesis Kit (Agilent Technologies, Cat #200523) was used to generate Y537S, Y537C, Y537N and D538G mutations within the ERα exon 8. Wild-type ESR1 cDNA (GeneCopoeia Inc., Cat# GC-A0322, accession no. NM 000125) was used as a template with the following mutagenesis primers (where the underlined nucleotides represent site mutations); Y537S: F-AAGAACGTGGTGCCCCTCTCTGACCTGCTGCTGGAGATG (SEQ ID NO: 1), R-CATCTCCAGCAGCAGGTCAGAGAGGGGCACCACGTTCTT (SEQ ID NO: 2); Y537N: F-AAGAACGTGGTGCCCCTCAATGACCTGCTGCTGGAGATG (SEQ ID NO: 3), R-CATCTCCAGCAGCAGGTCATTGAGGGGCACCACGTTCTT (SEQ ID NO: 4); Y537C: F-AAGAACGTGGTGCCCCTCTGTGACCTGCTGCTGGAGATG (SEQ ID NO: 5), R-CATCTCCAGCAGCAGGTCACAGAGGGGCACCACGTTCTT (SEQ ID NO: 6); D538G: F-AACGTGGTGCCCCTCTATGGCCTGCTGCTGGAGATGCTG (SEQ ID NO: 7), R-CAGCATCTCCAGCAGCAGGCCATAGAGGGGCACCACGTT (SEQ ID NO: 8). WT and mutant ESR1 cDNAs were cloned into the designation lentiviral vector pLenti6.3/V5-Dest (Invitrogen, Cat #V533-06). To make lentivirus, DNAs (WT and mutant ESR1) were co-transfected with packaging plasmids into Lenti-X 293T cells using TransIT (Mirus, Cat #MIR 2700). 48 h post-transfection, virus containing media was filtered and added to MCF7 cells in the presence of 8 µg/ml polybrene overnight. Two days following infection, cells were placed under selection with 10 µg/ml blasticidin for 2 weeks for stable expression.
(§3) MCF7-WT and -Y537S cells were seeded at 1500 cells/well in black-walled 96-well plates (assay plates, Costar, Cat #3904). In parallel, cells were also seeded in a separate 96-well plate (8 wells/cell line, control plate) for which a CTG (CellTiter-Glo® Luminescent Viability Assay, Promega, Cat #G7572) was measured the following day (day 0 reading). The day 0 reading was used for the GI50 calculation at the termination of the experiment. The day following seeding, compounds were added to assay plates. Briefly, a 1:4 serial dilution was prepared in DMSO at 200× final concentration for a total of 10 concentrations (9 dilutions containing compound and one is DMSO only). Serially diluted compounds were pipetted into medium to prepare a compound-medium mix at 10× final concentration. 10 μl of compound-medium mix was added to MCF7-WT and -Y537S cells at 3 wells/concentration (triplicate for each concentration). On day 3, media/compound was removed and replaced with fresh media/compound as described above. On day 6, CTG was measured and compared to day 0 readings from control plate to assess GI50.

[2] = tested on: MCF7-WT cells (MCF7 ER-alpha wildtype); experiment: In vitro proliferation (viability) assay, MCF7-WT cells; type: cell-based; settings: Homo sapiens, MCF7; CellTiter-Glo, day 6 vs day 0; average ± standard deviation; free base and/or salt forms; read-out: MCF7 WT GI50
Description: as §1, §2, §3

Row | SMILES | GI50 [1] [nM] | GI50 [2] [nM]
1 | CC/C(=C(/c1ccc(OCCNC/C=C/C(=O)NC)nc1)c1ccc2[nH]nc(C)c2c1)c1ccccc1 [Compound 49, (E)-N-methyl-4-((2-((5-((Z)-1-(3-methyl-1H-indazol-5-yl)-2-phenylbut-1-en-1-yl)pyridin-2-yl)oxy)ethyl)amino)but-2-enamide] | 2420 | 173 ± 51.7
2 | O=C1NCCC1CCNCCOc1ccc(/C(=C(/CC(F)(F)F)c2ccccc2)c2ccc3[nH]nc(F)c3c2)cn1 (stereo not shown) [Compound 53, (Z)-3-(2-((2-((5-(4,4,4-trifluoro-1-(3-fluoro-1H-indazol-5-yl)-2-phenylbut-1-en-1-yl)pyridin-2-yl)oxy)ethyl)amino)ethyl)pyrrolidin-2-one] | 1.8 | 0.3
3 | CNC(=O)/C=C/CNCCOc1ccc(/C(=C(/CC(F)(F)F)c2ccccc2)c2ccc3[nH]nc(F)c3c2)nn1 [Compound 54, (E)-N-methyl-4-((2-((6-((Z)-4,4,4-trifluoro-1-(3-fluoro-1H-indazol-5-yl)-2-phenylbut-1-en-1-yl)pyridazin-3-yl)oxy)ethyl)amino)but-2-enamide] | 7690 | 892 ± 528
4 | CC/C(=C(/c1ccc(OCCNCCCC(=O)NC)nc1)c1ccc2[nH]ncc2c1)c1ccccc1 [Compound 62, (Z)-4-((2-((5-(1-(1H-indazol-5-yl)-2-phenylbut-1-en-1-yl)pyridin-2-yl)oxy)ethyl)amino)-N-methylbutanamide] | 14.5 ± 4.32 | 3.31 ± 0.43
5 | CNC(=O)/C=C/CNCCOc1ccc(/C(=C(/CCO)c2ccccc2)c2ccc3[nH]nc(F)c3c2)cc1 [Compound 64, (E)-4-((2-(4-((E)-1-(3-fluoro-1H-indazol-5-yl)-4-hydroxy-2-phenylbut-1-en-1-yl)phenoxy)ethyl)amino)-N-methylbut-2-enamide] | 673 ± 167 | 153 ± 27.4
6 | CNC(=O)/C=C/CNCCOc1ccc(/C(=C(/CCOC)c2ccccc2)c2ccc3[nH]nc(F)c3c2)cc1 [Compound 65, (E)-4-((2-(4-((E)-1-(3-fluoro-1H-indazol-5-yl)-4-methoxy-2-phenylbut-1-en-1-yl)phenoxy)ethyl)amino)-N-methylbut-2-enamide] | 310 ± 139 | 58.3 ± 48.1
7 | O=C1CCCN1CCOc1ccc(/C(=C(/CC(F)(F)F)c2ccccc2)c2ccc3[nH]nc(F)c3c2)cc1 [Compound 70, (E)-1-(2-(4-(4,4,4-trifluoro-1-(3-fluoro-1H-indazol-5-yl)-2-phenylbut-1-en-1-yl)phenoxy)ethyl)pyrrolidin-2-one] | 6.18 ± 2.51 | 0.95 ± 0.25
8 | O=C(O)/C=C/CNCCOc1ccc(/C(=C(/CC(F)(F)F)c2ccccc2)c2ccc3[nH]nc(F)c3c2)cn1 [Compound 72, (E)-4-((2-((5-((Z)-4,4,4-trifluoro-1-(3-fluoro-1H-indazol-5-yl)-2-phenylbut-1-en-1-yl)pyridin-2-yl)oxy)ethyl)amino)but-2-enoic acid] | 22.2 ± 14.3 | 1.86 ± 0.87
9 | CC/C(=C(/c1ccc(OCCNC/C=C/C(=O)O)cc1)c1ccc2[nH]ncc2c1)c1ccccc1 [Compound 73, (E)-4-((2-(4-((E)-1-(1H-indazol-5-yl)-2-phenylbut-1-en-1-yl)phenoxy)ethyl)amino)but-2-enoic acid] | 155 ± 60.1 | 7.34 ± 0.58

Results, then the molecule that gave them:

Row | GI50 [1] [nM] | GI50 [2] [nM] | SMILES
10 | 8.25 ± 2.6 | 0.8 ± 0.14 | CC/C(=C(/c1ccc(OCCNC/C=C/C(=O)NC)cc1)c1ccc2[nH]nc(F)c2c1)c1ccc(F)cc1Cl [Compound 48, (E)-4-((2-(4-((E)-2-(2-chloro-4-fluorophenyl)-1-(3-fluoro-1H-indazol-5-yl)but-1-en-1-yl)phenoxy)ethyl)amino)-N-methylbut-2-enamide]
11 | 98.5 ± 81.5 | 4 ± 1.16 | CC/C(=C(/c1ccc(OCCNC/C=C/C(=O)NC)cc1)c1ccc2[nH]ncc2c1)c1ccccc1 [Compound 50, (E)-4-((2-(4-((E)-1-(1H-indazol-5-yl)-2-phenylbut-1-en-1-yl)phenoxy)ethyl)amino)-N-methylbut-2-enamide]
12 | 190 ± 50.1 | 9.82 ± 1.92 | CC/C(=C(/c1ccc(OCCNCCCC(=O)NC)cc1)c1ccc2[nH]ncc2c1)c1ccccc1 [Compound 51, (E)-4-((2-(4-(1-(1H-indazol-5-yl)-2-phenylbut-1-en-1-yl)phenoxy)ethyl)amino)-N-methylbutanamide]
13 | 9.3 | 1.2 | O=C(/C=C/CNCCOc1ccc(/C(=C(/CC(F)(F)F)c2ccccc2)c2ccc3[nH]nc(F)c3c2)cc1)N1CCCCC1 [Compound 52, (E)-1-(piperidin-1-yl)-4-((2-(4-((E)-4,4,4-trifluoro-1-(3-fluoro-1H-indazol-5-yl)-2-phenylbut-1-en-1-yl)phenoxy)ethyl)amino)but-2-en-1-one]
14 | 3.97 ± 2.25 | 0.33 ± 0.12 | CNC(=O)/C=C/CNCCOc1ccc(/C(=C(/CC(F)(F)F)c2ccc(F)cc2Cl)c2ccc3[nH]ncc3c2)cn1 [Compound 58, (E)-4-((2-((5-((Z)-2-(2-chloro-4-fluorophenyl)-4,4,4-trifluoro-4,4,4-trifluoro-1-(1H-indazol-5-yl)but-1-en-1-yl)pyridin-2-yl)oxy)ethyl)amino)-N-methylbut-2-enamide]
15 | 117 ± 11.6 | 17.9 ± 8.66 | CNC(=O)/C=C/CNCCOc1ccc(/C(=C(\c2ccccc2)C2CC2)c2ccc3[nH]nc(F)c3c2)cc1 [Compound 63, (E)-4-((2-(4-((E)-2-cyclopropyl-1-(3-fluoro-1H-indazol-5-yl)-2-phenylvinyl)phenoxy)ethyl)amino)-N-methylbut-2-enamide]
16 | > 10000 | 437 ± 55.2 | CNC(=O)/C=C/CNCCOc1ccc(/C(=C(/CCCl)c2ccccc2)c2ccc3[nH]nc(F)c3c2)cc1 [Compound 66, (E)-4-((2-(4-((E)-4-chloro-1-(3-fluoro-1H-indazol-5-yl)-2-phenylbut-1-en-1-yl)phenoxy)ethyl)amino)-N-methylbut-2-enamide]
17 | 87.7 ± 55 | 5.38 ± 0.66 | CCC/C(=C(/c1ccc(OCCNC/C=C/C(=O)NC)cc1)c1ccc2[nH]nc(F)c2c1)c1ccccc1 [Compound 67, (E)-4-((2-(4-((E)-1-(3-fluoro-1H-indazol-5-yl)-2-phenylpent-1-en-1-yl)phenoxy)ethyl)amino)-N-methylbut-2-enamide]
18 | 101 ± 53 | 22 ± 2.66 | CNC(=O)/C=C/CNCCOc1ccc(/C(=C(\c2ccccc2)C(C)C)c2ccc3[nH]nc(F)c3c2)cc1 [Compound 68, (E)-4-((2-(4-((E)-1-(3-fluoro-1H-indazol-5-yl)-3-methyl-2-phenylbut-1-en-1-yl)phenoxy)ethyl)amino)-N-methylbut-2-enamide]
19 | 9400 | 8080 | CNC(=O)/C=C/CNCCOc1ccc(/C(=C/CC(F)(F)F)c2ccc3[nH]nc(F)c3c2)nn1 [Compound 69, (E)-N-methyl-4-((2-((6-((E)-4,4,4-trifluoro-1-(3-fluoro-1H-indazol-5-yl)but-1-en-1-yl)pyridazin-3-yl)oxy)ethyl)amino)but-2-enamide]
20 | 5.31 | 0.62 | CNC(=O)CCCNCCOc1ccc(/C(=C(/CC(F)(F)F)c2ccccc2)c2ccc3[nH]nc(F)c3c2)cn1 [Compound 71, (Z)—N-methyl-4-((2-((5-(4,4,4-trifluoro-1-(3-fluoro-1H-indazol-5-yl)-2-phenylbut-1-en-1-yl)pyridin-2-yl)oxy)ethyl)amino)butanamide]
